Results reported in DBAASP.
Values after ≈ are worked out from the molar mass of the structure shown. Values joined by “and” are separate entries in the source; they are usually repeats but may differ in a detail not shown here. Equal entries are not always repeated. Values belong to the compound of their own block, whether it stands above or below them.

Experiments:
Experiment in all cases: ≥ marks a high value that may be exact or a test limit, other limits are often not marked, values filed in µg/mL are converted to µM
[1] = system: Staphylococcus aureus ATCC 2592
[2] = system: Helicobacter pylori NCTC 11637
Shigella dysenteriae = system: Shigella dysenteriae
[3] = system: Candida albicans ATCC 2002
[4] = system: Escherichia coli ATCC 25922
Escherichia coli 117 = system: Escherichia coli 117
[5] = system: Staphylococcus aureus ATCC 25923
[6] = system: Enterococcus faecalis ATCC 29212
[7] = system: Candida albicans ATCC 90028
[8] = system: Pseudomonas aeruginosa CMCCB 1010
Staphylococcus aureus 37 = system: Staphylococcus aureus 37
[9] = system: Pseudomonas aeruginosa ATCC 27853
Pseudomonas aeruginosa = system: Pseudomonas aeruginosa
[10] = system: Candida parapsilosis ATCC 22019
Escherichia coli 218 = system: Escherichia coli 218
Klebsiella pneumoniae = system: Klebsiella pneumoniae
Escherichia coli 37 = system: Escherichia coli 37
Escherichia coli K-12 = system: Escherichia coli K-12
[11] = system: Enterobacter cloacae ATCC 13047
[12] = system: Staphylococcus aureus USA 300
[13] = system: Klebsiella pneumoniae ATCC 700603
[14] = system: Rhodococcus rhodochrous X15
[15] = system: Enterococcus faecalis 981
[16] = system: Psychrobacter faecalis X29
Serratia rubidaea X01 = system: Serratia rubidaea X01
[17] = system: Bacillus licheniformis X39
[18] = system: Staphylococcus carnosus KHS
[19] = system: Staphylococcus aureus ATCC 25293
[20] = system: Micrococcus luteus ATCC 4698
[21] = system: Vibrio alginolyticus ATCC 17749
[22] = system: Salmonella enterica subsp. enterica serovar Newport
Candida sp. = system: Candida sp.
[23] = system: Escherichia coli 363 ATCC 11775
Fusarium oxysporum = system: Fusarium oxysporum
[24] = system: Vibrio metschnikovii NCTC 8483
[25] = system: Staphylococcus epidermidis ATCC 12228
[26] = system: Bacillus megaterium ATCC 17749
Saccharomyces cerevisiae = system: Saccharomyces cerevisiae
Bacillus megaterium = system: Bacillus megaterium
Aspergillus flavus = system: Aspergillus flavus
[27] = system: Escherichia coli ATCC 35218
[28] = system: Acinetobacter baumannii I NM8
[29] = system: Escherichia coli ATCC 25726

SMILES: CC[C@H](C)[C@H](NC(=O)[C@H](CCC(N)=O)NC(=O)[C@H](CCCCN)NC(=O)[C@H](Cc1c[nH]c2ccccc12)NC(=O)[C@H](CO)NC(=O)[C@H](CCC(N)=O)NC(=O)[C@@H]1CCCN1C(=O)[C@H](CC(C)C)NC(=O)[C@H](CCCCN)NC(=O)[C@H](C)NC(=O)[C@H](CCC(=O)O)NC(=O)[C@H](CCCCN)NC(=O)[C@@H](NC(=O)[C@H](CCSC)NC(=O)[C@@H](NC(=O)[C@@H](NC(=O)[C@@H](NC(=O)[C@@H](N)CO)[C@@H](C)CC)[C@@H](C)CC)[C@@H](C)O)[C@@H](C)O)C(=O)N[C@@H](C)C(=O)N[C@H]1CSSC[C@@H](C(=O)O)NC(=O)[C@H]([C@@H](C)O)NC(=O)[C@H](CC(N)=O)NC(=O)[C@H](Cc2ccc(O)cc2)NC(=O)[C@H](CC(C)C)NC(=O)[C@H](CCCN=C(N)N)NC1=O [SIITMTKEAKLPQSWKQIACRLYNTC]
- MIC [1]: 4.95 µM (≈ 15 µg/mL)
- MIC [2]: 9.91 µM (≈ 30 µg/mL)
- MIC (Shigella dysenteriae): 19.8 µM (≈ 60 µg/mL)
- MIC [3]: 9.91 µM (≈ 30 µg/mL)
- MIC [4]: 19.8 µM (≈ 60 µg/mL)

SMILES: CC[C@H](C)[C@H](NC(=O)CNC(=O)[C@H](Cc1ccccc1)NC(=O)[C@H](CCC(=O)O)NC(=O)[C@H](CCCCN)NC(=O)[C@H](CC(C)C)NC(=O)[C@H](CCCCN)NC(=O)[C@H](CC(=O)O)NC(=O)[C@H](CC(C)C)NC(=O)[C@@H](NC(=O)CN)[C@@H](C)CC)C(=O)N[C@@H](CO)C(=O)N[C@@H](C)C(=O)N[C@@H](C)C(=O)N[C@@H](CCCN=C(N)N)C(=O)NCC(=O)N[C@H](C(=O)N[C@@H](C)C(=O)N[C@@H](CCC(N)=O)C(=O)N[C@@H](CO)C(=O)N[C@@H](CC(C)C)C(=O)N[C@@H](CC(C)C)C(=O)N[C@@H](CC(N)=O)C(=O)N[C@H](C(=O)N[C@@H](C)C(=O)N[C@@H](CO)C(=O)N[C@H]1CSSC[C@@H](C(=O)O)NC(=O)[C@H]([C@@H](C)O)NC(=O)[C@H](CCCCN)NC(=O)[C@H](C)NC(=O)[C@H](CC(C)C)NC(=O)[C@H](CCCCN)NC1=O)[C@@H](C)O)C(C)C [GILDKLKEFGISAARGVAQSLLNTASCKLAKTC]
- MIC [14]: 2.3 µM (≈ 7.83 µg/mL)
- MIC [5]: 37.5 µM (≈ 128 µg/mL)
- MIC [15]: ≥ 37.5 µM
- MIC [16]: 2.3 µM (≈ 7.83 µg/mL)
- MIC (Serratia rubidaea X01): 2.3 µM (≈ 7.83 µg/mL)
- MIC [17]: ≥ 75 µM
- MIC [4]: 150 µM (≈ 511 µg/mL)
- MIC [18]: ≥ 37.5 µM

SMILES: CC(C)C[C@@H]1NC(=O)[C@H](CCCN=C(N)N)NC(=O)[C@H](Cc2cnc[nH]2)NC(=O)[C@H](Cc2c[nH]c3ccccc23)NC(=O)CNC(=O)CNC(=O)[C@@H](NC(=O)[C@H](Cc2ccc(O)cc2)NC(=O)CNC(=O)CNC(=O)[C@@H](N)CO)CSSC[C@@H](C(=O)N[C@H](C(=O)N[C@@H](CO)C(=O)N[C@@H](Cc2ccc(O)cc2)C(=O)N[C@@H](CCCN=C(N)N)C(=O)N[C@@H](CO)C(=O)NCC(=O)O)[C@@H](C)O)NC(=O)[C@H](CCCN=C(N)N)NC1=O [SGGYCGGWHRLRCTSYRSG]
- MIC [19]: 17 µM (≈ 35.7 µg/mL)
- MIC [20]: 16 µM (≈ 33.6 µg/mL)
- MIC [21]: ≥ 75 µM
- MIC [22]: ≥ 75 µM
- MIC (Candida sp.): 8 µM (≈ 16.8 µg/mL)
- MIC [23]: ≥ 62 µM
- MIC (Fusarium oxysporum): 13 µM (≈ 27.3 µg/mL)
- MIC [24]: ≥ 75 µM
- MIC [25]: 41 µM (≈ 86.2 µg/mL)
- MIC [26]: ≥ 34 µM

Results, then the compound that gave them:

- MIC (Escherichia coli 117): 27 µM (≈ 40 µg/mL)
- MIC [5]: 3.38 µM (≈ 5 µg/mL)
- MIC [6]: 1.69 µM (≈ 2.5 µg/mL)
- MIC [7]: 6.76 µM (≈ 10 µg/mL)
- MIC [8]: 27 µM (≈ 40 µg/mL)
- MIC (Staphylococcus aureus 37): 6.76 µM (≈ 10 µg/mL)
- MIC [9]: 3.38 µM (≈ 5 µg/mL)
- MIC (Pseudomonas aeruginosa): 3.38 µM (≈ 5 µg/mL)
- MIC [10]: 27 µM (≈ 40 µg/mL)
- MIC (Escherichia coli 218): 13.5 µM (≈ 20 µg/mL)
- MIC (Klebsiella pneumoniae): 6.76 µM (≈ 10 µg/mL)
- MIC (Shigella dysenteriae): 3.38 µM (≈ 5 µg/mL)
- MIC [3]: 6.76 µM (≈ 10 µg/mL)
- MIC (Escherichia coli 37): 6.76 µM (≈ 10 µg/mL)
- MIC [4]: 13.5 µM (≈ 20 µg/mL)
- MIC (Escherichia coli K-12): 25 µM (≈ 37 µg/mL)
- MIC [11]: 13.5 µM (≈ 20 µg/mL)
- MIC [12]: ≥ 100 µM
- MIC [13]: 6.76 µM (≈ 10 µg/mL)
SMILES: CC[C@H](C)[C@H](N)C(=O)N[C@@H](CC(N)=O)C(=O)N[C@@H](CC(C)C)C(=O)N[C@@H](CCCCN)C(=O)N[C@@H](C)C(=O)N[C@H](C(=O)N[C@@H](C)C(=O)N[C@@H](C)C(=O)N[C@@H](CC(C)C)C(=O)N[C@@H](C)C(=O)N[C@@H](CCCCN)C(=O)N[C@@H](CCCCN)C(=O)N[C@@H](CC(C)C)C(=O)N[C@@H](CC(C)C)C(=O)O)[C@@H](C)CC [INLKAIAALAKKLL]

- MIC [5]: 10 µM (≈ 14.7 µg/mL)
- MIC (Saccharomyces cerevisiae): 10 µM (≈ 14.7 µg/mL)
- MIC [6]: > 80 µM
- MIC (Bacillus megaterium): 4 µM (≈ 5.86 µg/mL)
- MIC [7]: 20 µM (≈ 29.3 µg/mL)
- MIC (Aspergillus flavus): 10 µM (≈ 14.7 µg/mL)
- MIC [9]: > 161 µM
- MIC [10]: 20 µM (≈ 29.3 µg/mL)
- MIC [27]: ≥ 80 µM
- MIC [4]: 161 µM (≈ 236 µg/mL)
SMILES: CC[C@H](C)[C@H](NC(=O)[C@H](Cc1cnc[nH]1)NC(=O)[C@H](CO)NC(=O)[C@H](CC(C)C)NC(=O)[C@@H](N)Cc1ccccc1)C(=O)N[C@@H](C)C(=O)NCC(=O)N[C@@H](Cc1ccccc1)C(=O)N[C@@H](CC(C)C)C(=O)N[C@@H](CO)C(=O)N[C@@H](CC(N)=O)C(=O)N[C@@H](CC(C)C)C(=O)N[C@@H](Cc1ccccc1)C(=O)O [FLSHIAGFLSNLF]

- MIC [5]: 80 µM and 100 µM
- MIC [28]: 25 µM (≈ 61.5 µg/mL)
- MIC [7]: ≥ 50 µM
- MIC [29]: ≥ 160 µM
- MIC [13]: > 50 µM
SMILES: CC[C@H](C)[C@H](NC(=O)[C@@H](NC(=O)[C@H](CO)NC(=O)[C@H](C)NC(=O)[C@H](CC(C)C)NC(=O)CN)[C@@H](C)O)C(=O)NCC(=O)N[C@@H](CO)C(=O)N[C@@H](CC(C)C)C(=O)N[C@@H](CC(C)C)C(=O)NCC(=O)N[C@@H](CCCCN)C(=O)N[C@@H](Cc1ccccc1)C(=O)N[C@@H](C)C(=O)N[C@@H](CCCCN)C(=O)NCC(=O)NCC(=O)N[C@@H](C)C(=O)N[C@@H](CCC(N)=O)C(=O)N[C@@H](C)C(=O)N[C@@H](Cc1ccccc1)C(=O)N[C@@H](CC(C)C)C(=O)N[C@@H](CCC(N)=O)C(=O)N1CCC[C@H]1C(=O)N[C@@H](CCCCN)C(=O)O [GLASTIGSLLGKFAKGGAQAFLQPK]
